Tests used:
Test in all cases: RBC kinase panel
Assay type in all cases: biochemical
KSR1 = biological target: T1, KSR1 (Homo sapiens, UniProt Q8IVT5); settings: ATP 10 μM, Data1, Data2
T1 construct: purchased Reaction Biology Corporation
Method in brief: (§1)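 Duplicate determinations were made for each of 369 human kinases exposed to 1 μM compound, with reactions run at 10 μM ATP.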

RET = biological target: T2, RET (Homo sapiens, UniProt P07949); settings: ATP 10 μM, Data1, Data2
T2 construct: purchased Reaction Biology Corporation
Method in brief: as §1

P38b/MAPK11 = biological target: T3, P38b/MAPK11 (Homo sapiens, UniProt Q15759); settings: ATP 10 μM, Data1, Data2
T3 construct: purchased Reaction Biology Corporation
Method in brief: as §1

ALK6/BMPR1B = biological target: T4, ALK6/BMPR1B (Homo sapiens, UniProt O00238); settings: ATP 10 μM, Data1, Data2
T4 construct: purchased Reaction Biology Corporation
Method in brief: as §1

IR = biological target: T5, IR (Homo sapiens, UniProt P06213); settings: ATP 10 μM, Data1, Data2
T5 construct: purchased Reaction Biology Corporation
Method in brief: as §1

PAK5 = biological target: T6, PAK5 (Homo sapiens, UniProt Q9P286); settings: ATP 10 μM, Data1, Data2
T6 construct: purchased Reaction Biology Corporation
Method in brief: as §1

p70S6K/RPS6KB1 = biological target: T7, p70S6K/RPS6KB1 (Homo sapiens, UniProt P23443); settings: ATP 10 μM, Data1, Data2
T7 construct: purchased Reaction Biology Corporation
Method in brief: as §1

TRKB = biological target: T8, TRKB (Homo sapiens, UniProt Q16620)
T8 construct: purchased Reaction Biology Corporation
T8 sequence (Q16620 32-822): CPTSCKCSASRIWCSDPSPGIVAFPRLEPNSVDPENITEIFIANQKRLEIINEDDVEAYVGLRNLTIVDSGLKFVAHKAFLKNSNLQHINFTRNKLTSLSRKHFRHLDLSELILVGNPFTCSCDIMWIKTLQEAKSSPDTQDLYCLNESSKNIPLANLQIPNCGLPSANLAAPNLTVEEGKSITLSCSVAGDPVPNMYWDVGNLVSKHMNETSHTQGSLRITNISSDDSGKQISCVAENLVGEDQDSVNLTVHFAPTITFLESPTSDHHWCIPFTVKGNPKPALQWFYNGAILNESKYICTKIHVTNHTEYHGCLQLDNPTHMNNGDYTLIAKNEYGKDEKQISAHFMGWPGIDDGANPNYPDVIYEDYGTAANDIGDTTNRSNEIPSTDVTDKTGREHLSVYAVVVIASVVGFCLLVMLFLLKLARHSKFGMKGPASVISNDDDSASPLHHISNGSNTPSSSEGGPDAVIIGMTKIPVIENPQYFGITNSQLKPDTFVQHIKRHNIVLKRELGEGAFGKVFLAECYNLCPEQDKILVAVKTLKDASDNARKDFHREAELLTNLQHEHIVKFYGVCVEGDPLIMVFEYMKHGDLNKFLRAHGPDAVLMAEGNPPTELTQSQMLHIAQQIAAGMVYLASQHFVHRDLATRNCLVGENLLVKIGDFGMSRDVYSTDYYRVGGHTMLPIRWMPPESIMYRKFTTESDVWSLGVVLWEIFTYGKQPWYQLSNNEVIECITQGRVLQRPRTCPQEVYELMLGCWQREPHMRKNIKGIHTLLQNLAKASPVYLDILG
Method in brief: as §1

HPK1/MAP4K1 = biological target: T9, HPK1/MAP4K1 (Homo sapiens, UniProt Q92918); settings: ATP 10 μM, Data1, Data2
T9 construct: purchased Reaction Biology Corporation
T9 sequence (Q92918 whole entry): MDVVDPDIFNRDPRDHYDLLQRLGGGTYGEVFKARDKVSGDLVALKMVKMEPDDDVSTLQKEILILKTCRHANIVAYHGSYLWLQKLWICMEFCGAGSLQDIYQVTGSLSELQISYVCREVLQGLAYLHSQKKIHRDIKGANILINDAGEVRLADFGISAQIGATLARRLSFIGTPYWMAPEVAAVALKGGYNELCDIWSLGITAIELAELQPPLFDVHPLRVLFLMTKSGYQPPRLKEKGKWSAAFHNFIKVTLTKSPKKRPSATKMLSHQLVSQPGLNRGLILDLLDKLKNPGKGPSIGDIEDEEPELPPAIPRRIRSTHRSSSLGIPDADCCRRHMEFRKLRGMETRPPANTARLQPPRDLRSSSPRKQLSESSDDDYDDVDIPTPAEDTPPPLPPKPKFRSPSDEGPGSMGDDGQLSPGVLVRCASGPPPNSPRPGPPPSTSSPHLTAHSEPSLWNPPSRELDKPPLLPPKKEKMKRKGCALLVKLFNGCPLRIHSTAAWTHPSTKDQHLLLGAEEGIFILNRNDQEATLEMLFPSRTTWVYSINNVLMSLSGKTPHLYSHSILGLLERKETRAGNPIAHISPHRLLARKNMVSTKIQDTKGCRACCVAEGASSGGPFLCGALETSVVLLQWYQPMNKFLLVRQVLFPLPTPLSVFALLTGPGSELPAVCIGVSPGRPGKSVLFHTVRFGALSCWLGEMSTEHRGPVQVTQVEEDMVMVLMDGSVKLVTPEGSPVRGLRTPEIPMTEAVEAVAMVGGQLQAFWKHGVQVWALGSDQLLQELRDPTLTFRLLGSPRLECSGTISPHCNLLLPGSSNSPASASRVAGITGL
Method in brief: as §1

PKCb2 = biological target: T10, PKCb2 (Homo sapiens, UniProt P05771); settings: ATP 10 μM, Data1, Data2
T10 construct: purchased Reaction Biology Corporation
T10 sequence (P05771 1-673 isoform P05771-2): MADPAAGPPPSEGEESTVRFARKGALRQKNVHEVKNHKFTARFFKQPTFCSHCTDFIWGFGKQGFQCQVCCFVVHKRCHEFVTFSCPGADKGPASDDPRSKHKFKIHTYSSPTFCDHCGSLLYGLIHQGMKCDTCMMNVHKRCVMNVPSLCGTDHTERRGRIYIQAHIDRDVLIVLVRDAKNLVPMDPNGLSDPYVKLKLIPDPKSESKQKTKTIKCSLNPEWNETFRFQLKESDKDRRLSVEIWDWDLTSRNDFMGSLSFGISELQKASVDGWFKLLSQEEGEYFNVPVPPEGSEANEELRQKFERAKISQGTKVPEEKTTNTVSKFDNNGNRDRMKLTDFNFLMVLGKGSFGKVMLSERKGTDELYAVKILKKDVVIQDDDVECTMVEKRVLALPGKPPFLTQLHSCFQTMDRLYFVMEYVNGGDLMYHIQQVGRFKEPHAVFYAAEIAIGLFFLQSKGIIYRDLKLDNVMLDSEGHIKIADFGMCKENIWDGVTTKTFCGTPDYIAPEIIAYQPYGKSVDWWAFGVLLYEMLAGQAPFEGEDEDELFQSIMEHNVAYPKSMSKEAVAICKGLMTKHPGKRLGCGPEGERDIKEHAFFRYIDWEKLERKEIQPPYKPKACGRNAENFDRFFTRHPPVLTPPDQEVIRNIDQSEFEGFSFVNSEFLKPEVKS
Method in brief: as §1

MYLK4 = biological target: T11, MYLK4 (Homo sapiens, UniProt Q86YV6); settings: ATP 10 μM, Data1, Data2
T11 construct: purchased Reaction Biology Corporation
T11 sequence (Q86YV6 whole entry): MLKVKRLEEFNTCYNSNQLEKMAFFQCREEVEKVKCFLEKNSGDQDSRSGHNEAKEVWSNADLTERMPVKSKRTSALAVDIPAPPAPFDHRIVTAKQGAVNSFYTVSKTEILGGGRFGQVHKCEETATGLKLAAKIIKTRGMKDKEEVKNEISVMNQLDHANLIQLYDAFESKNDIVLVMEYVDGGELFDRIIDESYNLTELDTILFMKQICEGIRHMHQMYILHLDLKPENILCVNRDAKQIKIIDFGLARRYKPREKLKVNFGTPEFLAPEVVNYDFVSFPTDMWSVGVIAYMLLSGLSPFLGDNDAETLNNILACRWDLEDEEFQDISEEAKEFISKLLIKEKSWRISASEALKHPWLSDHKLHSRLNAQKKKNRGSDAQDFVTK
Method in brief: as §1

LRRK2 = biological target: T12, LRRK2 (Homo sapiens, UniProt Q5S007); settings: ATP 10 μM, Data1, Data2
T12 construct: purchased Reaction Biology Corporation
Method in brief: as §1

MAK = biological target: T13, MAK (Homo sapiens, UniProt P20794); settings: ATP 10 μM, Data1, Data2
T13 construct: purchased Reaction Biology Corporation
Method in brief: as §1

CTK/MATK = biological target: T14, CTK/MATK (Homo sapiens, UniProt P42679); settings: ATP 10 μM, Data1, Data2
T14 construct: purchased Reaction Biology Corporation
Method in brief: as §1

GRK4 = biological target: T15, GRK4 (Homo sapiens, UniProt P32298); settings: ATP 10 μM, Data1, Data2
T15 construct: purchased Reaction Biology Corporation
Method in brief: as §1

DAPK2 = biological target: T16, DAPK2 (Homo sapiens, UniProt Q9UIK4); settings: ATP 10 μM, Data1, Data2
T16 construct: purchased Reaction Biology Corporation
Method in brief: as §1

CLK4 = biological target: T17, CLK4 (Homo sapiens, UniProt Q9HAZ1); settings: ATP 10 μM, Data1, Data2
T17 construct: purchased Reaction Biology Corporation
Method in brief: as §1

MARK4 = biological target: T18, MARK4 (Homo sapiens, UniProt Q96L34); settings: ATP 10 μM, Data1, Data2
T18 construct: purchased Reaction Biology Corporation
T18 sequence (Q96L34 whole entry): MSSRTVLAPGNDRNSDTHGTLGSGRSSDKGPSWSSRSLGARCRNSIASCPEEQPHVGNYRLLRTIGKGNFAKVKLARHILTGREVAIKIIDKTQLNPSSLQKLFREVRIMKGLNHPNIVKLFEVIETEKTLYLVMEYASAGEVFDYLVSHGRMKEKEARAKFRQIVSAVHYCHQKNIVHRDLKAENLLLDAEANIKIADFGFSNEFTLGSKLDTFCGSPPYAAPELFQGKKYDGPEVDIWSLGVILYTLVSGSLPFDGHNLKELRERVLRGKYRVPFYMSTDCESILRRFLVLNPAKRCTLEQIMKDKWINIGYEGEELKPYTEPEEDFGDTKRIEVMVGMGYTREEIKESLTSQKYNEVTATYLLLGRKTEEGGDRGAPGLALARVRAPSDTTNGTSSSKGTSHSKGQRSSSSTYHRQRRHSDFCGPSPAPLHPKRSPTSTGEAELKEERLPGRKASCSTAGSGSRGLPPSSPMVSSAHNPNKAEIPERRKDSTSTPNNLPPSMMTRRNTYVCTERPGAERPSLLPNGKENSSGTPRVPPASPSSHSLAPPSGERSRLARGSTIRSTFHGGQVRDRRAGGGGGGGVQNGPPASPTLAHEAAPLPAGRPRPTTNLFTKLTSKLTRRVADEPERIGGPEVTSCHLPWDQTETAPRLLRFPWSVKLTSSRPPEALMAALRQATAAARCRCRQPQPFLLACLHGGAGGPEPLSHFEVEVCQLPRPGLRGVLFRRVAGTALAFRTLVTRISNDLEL
Method in brief: as §1

TAOK3/JIK = biological target: T19, TAOK3/JIK (Homo sapiens, UniProt Q9H2K8); settings: ATP 10 μM, Data1, Data2
T19 construct: purchased Reaction Biology Corporation
Method in brief: as §1

RIPK5 = biological target: T20, RIPK5 (Homo sapiens, UniProt Q6XUX3); settings: ATP 10 μM, Data1, Data2
T20 construct: purchased Reaction Biology Corporation
Method in brief: as §1

ALK5/TGFBR1 = biological target: T21, ALK5/TGFBR1 (Homo sapiens, UniProt P36897); settings: ATP 10 μM, Data1, Data2
T21 construct: purchased Reaction Biology Corporation
Method in brief: as §1

MAPKAPK5/PRAK = biological target: T22, MAPKAPK5/PRAK (Homo sapiens, UniProt Q8IW41); settings: ATP 10 μM, Data1, Data2
T22 construct: purchased Reaction Biology Corporation
Method in brief: as §1

NEK6 = biological target: T23, NEK6 (Homo sapiens, UniProt Q9HC98); settings: ATP 10 μM, Data1, Data2
T23 construct: purchased Reaction Biology Corporation
T23 sequence (Q9HC98 whole entry): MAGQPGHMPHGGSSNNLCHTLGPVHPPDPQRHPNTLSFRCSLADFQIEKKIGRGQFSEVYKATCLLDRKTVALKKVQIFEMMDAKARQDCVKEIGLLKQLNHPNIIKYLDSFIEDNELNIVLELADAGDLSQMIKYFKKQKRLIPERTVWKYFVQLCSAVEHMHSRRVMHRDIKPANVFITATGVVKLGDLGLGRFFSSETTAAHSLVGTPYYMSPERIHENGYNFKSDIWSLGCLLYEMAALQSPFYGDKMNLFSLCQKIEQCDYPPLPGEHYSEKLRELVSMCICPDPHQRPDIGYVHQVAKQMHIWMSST
Method in brief: as §1

P38d/MAPK13 = biological target: T24, P38d/MAPK13 (Homo sapiens, UniProt O15264); settings: ATP 10 μM, Data1, Data2
T24 construct: purchased Reaction Biology Corporation
Method in brief: as §1

MLK3/MAP3K11 = biological target: T25, MLK3/MAP3K11 (Homo sapiens, UniProt Q16584); settings: ATP 10 μM, Data1, Data2
T25 construct: purchased Reaction Biology Corporation
Method in brief: as §1

MEK1 = biological target: T26, MEK1 (Homo sapiens, UniProt Q02750); settings: ATP 10 μM, Data1, Data2
T26 construct: purchased Reaction Biology Corporation
Method in brief: as §1

MARK1 = biological target: T27, MARK1 (Homo sapiens, UniProt Q9P0L2); settings: ATP 10 μM, Data1, Data2
T27 construct: purchased Reaction Biology Corporation
Method in brief: as §1

TESK2 = biological target: T28, TESK2 (Homo sapiens, UniProt Q96S53); settings: ATP 10 μM, Data1, Data2
T28 construct: purchased Reaction Biology Corporation
T28 sequence (Q96S53 whole entry): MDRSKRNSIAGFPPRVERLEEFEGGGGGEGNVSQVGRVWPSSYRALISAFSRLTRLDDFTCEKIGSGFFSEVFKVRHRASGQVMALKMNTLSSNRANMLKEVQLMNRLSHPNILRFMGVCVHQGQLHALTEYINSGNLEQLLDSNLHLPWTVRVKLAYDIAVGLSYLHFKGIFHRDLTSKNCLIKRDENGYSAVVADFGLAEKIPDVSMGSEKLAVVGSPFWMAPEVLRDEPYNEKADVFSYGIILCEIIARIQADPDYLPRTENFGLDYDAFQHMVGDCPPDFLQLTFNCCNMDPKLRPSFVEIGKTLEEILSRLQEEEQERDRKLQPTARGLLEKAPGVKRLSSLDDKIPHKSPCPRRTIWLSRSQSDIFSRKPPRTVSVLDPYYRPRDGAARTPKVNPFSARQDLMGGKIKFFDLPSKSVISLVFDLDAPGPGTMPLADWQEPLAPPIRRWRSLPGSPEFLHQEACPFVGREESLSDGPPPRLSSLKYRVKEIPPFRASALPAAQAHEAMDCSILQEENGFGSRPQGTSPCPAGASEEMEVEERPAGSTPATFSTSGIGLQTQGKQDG
Method in brief: as §1

GLK/MAP4K3 = biological target: T29, GLK/MAP4K3 (Homo sapiens, UniProt Q8IVH8); settings: ATP 10 μM, Data1, Data2
T29 construct: purchased Reaction Biology Corporation
Method in brief: as §1

VRK1 = biological target: T30, VRK1 (Homo sapiens, UniProt Q99986); settings: ATP 10 μM, Data1, Data2
T30 construct: purchased Reaction Biology Corporation
Method in brief: as §1

ARK5/NUAK1 = biological target: T31, ARK5/NUAK1 (Homo sapiens, UniProt O60285); settings: ATP 10 μM, Data1, Data2
T31 construct: purchased Reaction Biology Corporation
T31 sequence (O60285 whole entry): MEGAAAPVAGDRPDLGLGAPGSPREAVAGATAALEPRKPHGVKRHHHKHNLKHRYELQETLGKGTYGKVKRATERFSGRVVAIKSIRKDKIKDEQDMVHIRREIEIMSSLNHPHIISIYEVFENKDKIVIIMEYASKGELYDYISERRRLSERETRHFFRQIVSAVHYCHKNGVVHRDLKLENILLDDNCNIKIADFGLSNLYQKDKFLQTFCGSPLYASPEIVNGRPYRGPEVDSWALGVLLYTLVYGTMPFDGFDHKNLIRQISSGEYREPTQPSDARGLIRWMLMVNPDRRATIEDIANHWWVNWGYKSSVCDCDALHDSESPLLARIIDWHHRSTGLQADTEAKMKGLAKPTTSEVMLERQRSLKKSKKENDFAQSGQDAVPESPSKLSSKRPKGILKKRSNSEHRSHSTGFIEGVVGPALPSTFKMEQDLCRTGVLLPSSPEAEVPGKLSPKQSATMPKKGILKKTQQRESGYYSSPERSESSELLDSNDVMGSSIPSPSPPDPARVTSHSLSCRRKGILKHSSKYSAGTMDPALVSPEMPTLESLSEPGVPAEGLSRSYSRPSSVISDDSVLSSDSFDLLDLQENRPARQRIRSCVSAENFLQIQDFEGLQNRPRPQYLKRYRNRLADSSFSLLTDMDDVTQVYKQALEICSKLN
Method in brief: as §1

PAK4 = biological target: T32, PAK4 (Homo sapiens, UniProt O96013); settings: ATP 10 μM, Data1, Data2
T32 construct: purchased Reaction Biology Corporation
Method in brief: as §1

CDK1/cyclin A = biological target: T33, CDK1/cyclin A (Homo sapiens, UniProt P06493); settings: ATP 10 μM, Data1, Data2
T33 construct: purchased Reaction Biology Corporation
Method in brief: as §1

With `CC(=O)Nc1nc2ccc(-c3cnc(C)c(NC(=O)OC4CCCCC4)c3)cc2s1` [PK68, cyclohexyl (5-(2-acetamidobenzo[d]thiazol-6-yl)-2-methylpyridin-3-yl)carbamate] the Activity% (KSR1; 1 μM) was 101.02%, the activity at 1 µM (KSR1) was 102% and the Activity% (RET; 1 μM) was 66.89%. It also gave an activity at 1 µM (RET) of 67.7%, an Activity% (P38b/MAPK11; 1 μM) of 102.60% and an activity at 1 µM (P38b/MAPK11) of 103%. For the same compound, the Activity% (ALK6/BMPR1B; 1 μM) was 91.83%, the activity at 1 µM (ALK6/BMPR1B) was 92.5% and the Activity% (IR; 1 μM) was 81.00%. It also gave an activity at 1 µM (IR) of 81.6%, an Activity% (PAK5; 1 μM) of 98.16% and an activity at 1 µM (PAK5) of 102%. The Activity% (p70S6K/RPS6KB1; 1 μM) was 101.85%, the activity at 1 µM (p70S6K/RPS6KB1) was 102% and the Activity% (TRKB; 1 μM, ATP 10 μM, Data1, Data2) was 41.21%. For the same compound, the activity at 1 µM (TRKB; 1 μM, ATP 10 μM, Data1, Data2) was 41.2%, the inhibition at 1 µM (TRKB; at 1000 nM) was > 50% and the Activity% (HPK1/MAP4K1; 1 μM) was 98.32%. The activity at 1 µM (HPK1/MAP4K1) was 101%, the Activity% (PKCb2; 1 μM) was 98.56% and the activity at 1 µM (PKCb2) was 100%. The Activity% (MYLK4; 1 μM) was 89.75%, the activity at 1 µM (MYLK4) was 92.7% and the Activity% (LRRK2; 1 μM) was 66.88%. For the same compound, the activity at 1 µM (LRRK2) was 67.7%, the Activity% (MAK; 1 μM) was 96.81% and the activity at 1 µM (MAK) was 97%. For the same compound, the Activity% (CTK/MATK; 1 μM) was 93.51%, the activity at 1 µM (CTK/MATK) was 93.8% and the Activity% (GRK4; 1 μM) was 103.31%. The activity at 1 µM (GRK4) was 107%, the Activity% (DAPK2; 1 μM) was 107.36% and the activity at 1 µM (DAPK2) was 109%. For the same compound, the Activity% (CLK4; 1 μM) was 70.07%, the activity at 1 µM (CLK4) was 71% and the Activity% (MARK4; 1 μM) was 101.55%. It also gave an activity at 1 µM (MARK4) of 103%, an Activity% (TAOK3/JIK; 1 μM) of 93.52% and an activity at 1 µM (TAOK3/JIK) of 94.6%. It also gave an Activity% (RIPK5; 1 μM) of 102.45%, an activity at 1 µM (RIPK5) of 103% and an Activity% (ALK5/TGFBR1; 1 μM) of 94.67%. For the same compound, the activity at 1 µM (ALK5/TGFBR1) was 95.1%, the Activity% (MAPKAPK5/PRAK; 1 μM) was 97.02% and the activity at 1 µM (MAPKAPK5/PRAK) was 97%. It also gave an Activity% (NEK6; 1 μM) of 93.63%, an activity at 1 µM (NEK6) of 98.4% and an Activity% (P38d/MAPK13; 1 μM) of 95.45%. For the same compound, the activity at 1 µM (P38d/MAPK13) was 95.8%, the Activity% (MLK3/MAP3K11; 1 μM) was 82.77% and the activity at 1 µM (MLK3/MAP3K11) was 82.9%. The Activity% (MEK1; 1 μM) was 97.25%, the activity at 1 µM (MEK1) was 99% and the Activity% (MARK1; 1 μM) was 96.33%. It also gave an activity at 1 µM (MARK1) of 97%, an Activity% (TESK2; 1 μM) of 92.21% and an activity at 1 µM (TESK2) of 94.3%. It also gave an Activity% (GLK/MAP4K3; 1 μM) of 102.14%, an activity at 1 µM (GLK/MAP4K3) of 104% and an Activity% (VRK1; 1 μM) of 104.78%. The activity at 1 µM (VRK1) was 105%, the Activity% (ARK5/NUAK1; 1 μM) was 98.37% and the activity at 1 µM (ARK5/NUAK1) was 99.4%. For the same compound, the Activity% (PAK4; 1 μM) was 101.97%, the activity at 1 µM (PAK4) was 104% and the Activity% (CDK1/cyclin A; 1 μM) was 96.92%. It also gave an activity at 1 µM (CDK1/cyclin A) of 97.2%.

Reference: article PMC6591251, “Discovery of potent necroptosis inhibitors targeting RIPK1 kinase activity for the treatment of inflammatory disorder and cancer metastasis” (Cell Death & Disease, 2019)
